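Interpolation was linear, between the two tested concentrations surrounding the appropriate level; five concentrations were tested over 48 hours in 96-well plates. GI50: concentration for 50% inhibition of growth.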 Calls of active or inactive are those of the source. Rule as the data show it: active = GI50 up to about 1.1 µM and inactive = higher.
Columns and labels:
Experiment in all cases: NCI anticancer screen, dose series, 48 h
[1] = system: SK-MEL-28
[2] = system: SK-MEL-2
[3] = system: CCRF-CEM
[4] = system: MOLT-4
[5] = system: NCI-H226
[6] = system: LOX IMVI
[7] = system: OVCAR-4
[8] = system: K562
[9] = system: SNB-19
[10] = system: M14
[11] = system: HCC 2998
[12] = system: SF-539
[13] = system: UACC-257
[14] = system: OVCAR-5
[15] = system: UO-31
[16] = system: HT-29
[17] = system: SR
[18] = system: A498

N=C(N)N/N=C/c1c[nH]c2ccccc12
GI50 [1]: > 100 µM (inactive) | GI50 [2]: > 100 µM (inactive) | GI50 [3]: > 100 µM (inactive) | GI50 [4]: > 100 µM (inactive) | GI50 [5]: > 100 µM (inactive) | GI50 [6]: > 100 µM (inactive) | GI50 [7]: > 100 µM (inactive) | GI50 [8]: > 100 µM (inactive) | GI50 [9]: > 100 µM (inactive) | GI50 [10]: > 100 µM (inactive) | GI50 [11]: > 100 µM (inactive) | GI50 [12]: > 100 µM (inactive) | GI50 [13]: > 100 µM (inactive) | GI50 [14]: > 100 µM (inactive) | GI50 [15]: > 100 µM (inactive) | GI50 [16]: > 100 µM (inactive) | GI50 [17]: > 100 µM (inactive)

CN(C)CCNC(=O)c1cccc2ccc(-c3ccncc3)nc12
GI50 [1]: 4.86 µM (inactive) | GI50 [2]: 4.02 µM (inactive) | GI50 [3]: 1.87 µM (inactive) | GI50 [4]: 0.306 µM (active) | GI50 [6]: 1.39 µM (inactive) | GI50 [7]: 2.79 µM (inactive) | GI50 [8]: 2.58 µM (inactive) | GI50 [9]: 2.81 µM (inactive) | GI50 [10]: 4.11 µM (inactive) | GI50 [11]: 1.96 µM (inactive) | GI50 [12]: 1.45 µM (inactive) | GI50 [13]: 2.06 µM (inactive) | GI50 [14]: 1.93 µM (inactive) | GI50 [15]: 1.94 µM (inactive) | GI50 [16]: 2.54 µM (inactive) | GI50 [18]: 1.3 µM (inactive)

CN(C)c1ccc(C(C=C2c3ccccc3Sc3ccccc32)=C(C#N)C#N)cc1
GI50 [1]: > 100 µM (inactive) | GI50 [2]: > 100 µM (inactive) | GI50 [3]: > 100 µM (inactive) | GI50 [4]: > 100 µM (inactive) | GI50 [6]: 48.4 µM (inactive) | GI50 [7]: 16 µM (inactive) | GI50 [8]: 5.65 µM (inactive) | GI50 [9]: 83.4 µM (inactive) | GI50 [10]: 58.6 µM (inactive) | GI50 [11]: > 100 µM (inactive) | GI50 [12]: 77.3 µM (inactive) | GI50 [13]: > 100 µM (inactive) | GI50 [14]: > 100 µM (inactive) | GI50 [15]: 82.8 µM (inactive) | GI50 [16]: > 100 µM (inactive) | GI50 [18]: > 100 µM (inactive)

CC1=C[C@H]2c3c([nH]c4ccccc34)C(c3c[nH]c4ccccc34)[C@H]2CC1 (some centres not stated)
GI50 [1]: 12.1 µM (inactive) | GI50 [3]: 3.36 µM (inactive) | GI50 [4]: 2.15 µM (inactive) | GI50 [5]: 11 µM (inactive) | GI50 [6]: 2.19 µM (inactive) | GI50 [8]: 3.75 µM (inactive) | GI50 [10]: 6.52 µM (inactive) | GI50 [11]: 3.48 µM (inactive) | GI50 [12]: 12.9 µM (inactive) | GI50 [13]: 13.4 µM (inactive) | GI50 [15]: > 10 µM (inactive) | GI50 [16]: 3.3 µM (inactive) | GI50 [18]: 15.5 µM (inactive)

CO[C@H](C(=O)O[C@H]1C(=O)N2CC[C@@H]3CCC[C@H]1C32C)c1ccccc1 (some centres not stated)
GI50 [1]: > 100 µM (inactive) | GI50 [2]: > 100 µM (inactive) | GI50 [3]: > 100 µM (inactive) | GI50 [4]: > 100 µM (inactive) | GI50 [5]: > 100 µM (inactive) | GI50 [6]: > 100 µM (inactive) | GI50 [7]: > 100 µM (inactive) | GI50 [8]: > 100 µM (inactive) | GI50 [9]: > 100 µM (inactive) | GI50 [10]: > 100 µM (inactive) | GI50 [11]: 60.8 µM (inactive) | GI50 [12]: > 100 µM (inactive) | GI50 [13]: > 100 µM (inactive) | GI50 [14]: > 100 µM (inactive) | GI50 [15]: > 100 µM (inactive) | GI50 [16]: > 100 µM (inactive) | GI50 [17]: > 100 µM (inactive)

O=C(/C=C/c1ccc[nH]1)c1ccccc1
GI50 [1]: > 100 µM (inactive) | GI50 [2]: > 100 µM (inactive) | GI50 [3]: > 100 µM (inactive) | GI50 [4]: > 100 µM (inactive) | GI50 [5]: > 100 µM (inactive) | GI50 [6]: > 100 µM (inactive) | GI50 [7]: > 100 µM (inactive) | GI50 [8]: > 100 µM (inactive) | GI50 [9]: > 100 µM (inactive) | GI50 [10]: > 100 µM (inactive) | GI50 [12]: > 100 µM (inactive) | GI50 [13]: > 100 µM (inactive) | GI50 [14]: > 100 µM (inactive) | GI50 [15]: > 100 µM (inactive) | GI50 [16]: > 100 µM (inactive) | GI50 [17]: > 100 µM (inactive)

Nc1cccc2c1C(=O)c1cccc(N)c1C2=O
GI50 [1]: > 100 µM (inactive) | GI50 [2]: > 100 µM (inactive) | GI50 [3]: > 100 µM (inactive) | GI50 [4]: > 100 µM (inactive) | GI50 [5]: > 100 µM (inactive) | GI50 [6]: > 100 µM (inactive) | GI50 [7]: > 100 µM (inactive) | GI50 [8]: > 100 µM (inactive) | GI50 [9]: > 100 µM (inactive) | GI50 [10]: > 100 µM (inactive) | GI50 [11]: > 100 µM (inactive) | GI50 [12]: > 100 µM (inactive) | GI50 [13]: > 100 µM (inactive) | GI50 [14]: > 100 µM (inactive) | GI50 [15]: > 100 µM (inactive) | GI50 [16]: > 100 µM (inactive) | GI50 [18]: > 100 µM (inactive)

Nc1n[n+]([O-])c2ccccc2[n+]1[O-] [TIRAPAZAMINE]
GI50 [1]: > 100 µM (inactive) | GI50 [2]: > 100 µM (inactive) | GI50 [3]: > 100 µM (inactive) | GI50 [4]: 37.4 µM (inactive) | GI50 [5]: > 100 µM (inactive) | GI50 [6]: > 100 µM (inactive) | GI50 [7]: > 100 µM (inactive) | GI50 [8]: > 100 µM (inactive) | GI50 [9]: > 100 µM (inactive) | GI50 [10]: > 100 µM (inactive) | GI50 [12]: > 100 µM (inactive) | GI50 [13]: 72.4 µM (inactive) | GI50 [14]: > 100 µM (inactive) | GI50 [15]: > 100 µM (inactive) | GI50 [16]: > 100 µM (inactive)
